Data set [1] deals with Salmonella typhimurium TA 98. The experiment in a line: Ames Salmonella mutagenicity test (preincubation method), strain TA 98. Format: cell-based. The following applies: TA 98, +s9, positive control, concentration not given.
Data set [2] relates to Salmonella typhimurium TA 100. The format is cell-based. The following applies: TA 100, +s9, positive control, concentration not given.
Another data set deals with calf thymus DNA. The experiment in a line: Protective effect on DNA scission induced by hydroxyl radical (TBA assay). The format is biochemical. As to the method: In this assay hydroxyl radicals are typically generated within a mixture of ascorbic acid, H2O2 and Fe3+-ethylenediaminetetracetic acid (EDTA); those radicals that are not scavenged by other components of the reaction mixture will eventually attack deoxyribose, thus degrading it into a series of fragments.
The experiment was conducted using calf thymus DNA. Briefly, sample was dissolved in ethanol at 1 mg/mL. 50 μl of different concentration of sample was then separately taken into mini tubes followed by addition of 400 μL of phosphate buffer (0.2 mol/L, pH 7.4). Subsequently, 50 μL DNA sodium, 50 μL H2O2, 50 μL FeCl3 and 50 μL Na2EDTA (1 mmol/L) were added. The reaction was initiated by adding 50 μL ascorbic acid (18 mmol/L) and the total volume of the reaction mixture was adjusted to 800 μL with buffer. After incubation in a water bath at 55° C. for 20 min, the reaction was terminated by adding 250 μL TCA.
The color was then developed by addition of 150 μL of TBA and heating in an oven at 105° C. for 15 min. The mixture was cooled and absorbance was measured at 532 nm against the buffer (as blank). The percent of protection against DNA damage is expressed Protective effect %=(1−A/A0)×100 Where A0 is the absorbance of the mixture without sample, and A is the absorbance of the mixture with sample. Results

Data set [3] is described as follows: Superoxide anion scavenging activity (NBT/NADH/PMS). The format is biochemical.
Experimental: Prepared all the solutions in this experiment using phosphate buffer (pH 7.4). Added 1 ml of NBT (156 μM), 1 ml of NADH (468 μM) and 3 ml of test samples to all test tubes. The reaction was started by adding 100 ml of PMS (60 μM) and incubated the mixture at 25° C. for 5 min followed by measurement of absorbance at 560 nm. The percentage of scavenging was calculated using formula: % Scavenging=Ac−As/Ac×100 Where AC was the absorbance of the control (blank) and As was the absorbance in the presence of the composition.
Data set [4] is described as follows: Reducing power assay (Fe3+ to Fe2+). Format: biochemical. Also on record: Reducing power activity: unit not given here.
Data set [5] can be described thus: DPPH radical scavenging assay. The format is biochemical. For orientation: The DPPH test is a chemical assay of radical scavenging.
Experimental: The free radical scavenging capacity of the test sample was determined using DPPH scavenging assay. DPPH solution was prepared in 95% methanol. Freshly prepared DPPH solution was taken in test tubes and different concentration of test samples were added and incubated for 20 min. The absorbance was read at 517 nm using a spectrophotometer. Blank was prepared containing the same volume of reaction mixture without any tested samples. The percentage of scavenging was calculated using the formula: % Scavenging=Ac−As/Ac×100 Where AC was the absorbance of the control (blank) and AS was the absorbance in the presence of the composition (Braca et al., 2001).

Molecules are shown by their SMILES. “And” between values parts separate entries of the source, which are not always exact repeats. Equal values may be shown once.

On to `Nc1ccc2cc3ccccc3cc2c1` [PC 2AF, 2-aminoanthracene], for which the “Revertant colonies/plate (Mean n = 2 ± S.D.)” value in data set [1] was 1560 ± 3.53 Revertant colonies/plate; in data set [2], 2737 ± 4.9 Revertant colonies/plate.

Turning to `COc1ccc(O)c(C(C)(C)C)c1` [BHA], the “% protective effect (DNA damage)” value is 15.79 ± 0.89% in the data set with calf thymus DNA (10 μg/ml); 19.25 ± 1.09% with calf thymus DNA (20 μg/ml); 32.50 ± 2.12% in the data set on calf thymus DNA (40 μg/ml); 39.16 ± 0.33% in the data set with calf thymus DNA (60 μg/ml); 43.04 ± 0.29% with calf thymus DNA (80 μg/ml); 51.37% and 51.37 ± 4.06% with calf thymus DNA (100 μg/ml).

Regarding `O=C1O[C@H]([C@@H](O)CO)C(O)=C1O` [Ascorbic acid], the “% inhibition (superoxide scavenging activity)” value in data set [3] (20 μg/ml) is on record as 84.80%; in data set [3] (40 μg/ml), 85.20%; in data set [3] (60 μg/ml) it was 88.40%; in data set [3] (80 μg/ml), 89.20%; in data set [3] (100 μg/ml), 89.60%. Moreover, the “Absorbance @560 nm” value in data set [3] (20 μg/ml) is 0.038; in data set [3] (40 μg/ml) it was 0.037; in data set [3] (60 μg/ml), 0.029; in data set [3] (80 μg/ml) it was 0.027; in data set [3] (100 μg/ml), 0.026. Besides, in data set [4] (100 μg/ml), the “Absorbance (reductive capability, 700 nm)” value is 0.970. The Reducing power activity was 15.46 in data set [4] (20 (Table 7; range 20-100 μg/ml per text)); 16.60 in data set [4] (40 (Table 7)); 16.61 in data set [4] (60 (Table 7)); 17.33 in data set [4] (80 (Table 7)); 18.59 in data set [4] (100 (Table 7)). The “% inhibition (DPPH scavenging activity)” value came out at 83.21% in data set [5] (20 μg/ml); 90.88% in data set [5] (40 μg/ml); 94.53% in data set [5] (60 μg/ml); 94.89% in data set [5] (80 μg/ml); 96.72% in data set [5] (100 μg/ml); 96.71% in data set [5] (100 μg/ml, listed as ascorbic acid). Further, the “Absorbance @517 nm” value was found to be 0.046 in data set [5] (20 μg/ml); 0.025 in data set [5] (40 μg/ml); 0.015 in data set [5] (60 μg/ml); 0.014 in data set [5] (80 μg/ml); 0.009 in data set [5] (100 μg/ml).

For the origin of these results see patent US11607398B2, “Chlorogenic acid composition and method of weight management” (Vidya Herbs, Inc., priority 2015, dated 2023).
